Measurements: patent EP0185130A1, “5-Alkoxy-2,4,6-triodo or tribromo-isophthalic-acid derivatives, process for their preparation and X-ray contrast agents containing them” (BRACCO INDUSTRIA CHIMICA Società per Azioni, priority 1984, dated 1986)
≈ marks a conversion by molar mass, not a printed value. Like-named read-outs stand apart in the source and are kept apart here.

Columns and labels:
[1] = Water solubility; format: physicochemical; conditions: for solubility: water, read-out: Wasserlöslichkeit
[2] = Heat sterilisation of aqueous injection solutions (stability); format: physicochemical; conditions: 120 °C for 30 minutes
Excerpt: Beispielsweise werden die nach den vorstehenden Beispielen erhaltenen reinen 5-Alkoxy-2,4,6-trijodisopthalsäurediamide unter sterilen Bedingungen in der gewünschten Menge bidestilliertem Wasser gelöst, filtriert, unter Zusatz von geringen Mengen EDTA-Na2 und Puffersubstanzen auf pH 6,9 bis 7,1 eingestellt, in Serumflaschen oder Ampullen abgefüllt und anschliessend sterilisiert.

[3] = result in words, no temperature stated

Molecule: 5-(3,6,9-Trioxadecyl)oxy-2,4,6-tribromisophthalsäure-bis(1,3-dihydroxy- isopropylamid) [Beispiel 7]
- Wasserlöslichkeit ([1]; bei 20 °C): > 100 % (g/v)
- sterilisieren durch Erhitzen [2]: ohne Schwierigkeiten

Molecule: 5-(3,6,9-Triuxadecyl)oxy-2,4,6-trijodisophthalsäure-bis(1,3-dihydroxy- isopropylamid) [Beispiel 2]
- Wasserlöslichkeit ([1]; bei Raumtemperatur): > 100 % (g/v)
- sterilisieren durch Erhitzen [2]: ohne Schwierigkeiten

Molecule: COCCOCCOCCOCCOCCOc1c(I)c(C(=O)NC(CO)CO)c(I)c(C(=O)NC(CO)CO)c1I [Beispiel 3, 5-(3,6,9,12,15-Pentaoxahexadecyl)oxy-2,4,6-trijod-isophthalsäure-bis-(1,3-dihydroxyisopropylamid)]
- solubility ([1]; bei Raumtemperatur): > 1000 mg/mL
- sterilisieren durch Erhitzen [2]: ohne Schwierigkeiten

Molecule: COCCOCCOCCOCCOCCOCCOCCOc1c(I)c(C(=O)NC(CO)CO)c(I)c(C(=O)NC(CO)CO)c1I [Beispiel 4, 5-(3,6,9,12,15,18,21-Heptaoxadocosyl)oxy-2,4,6-trijodisophthalsäure-bis(1,3-dihydroxyisopropylamid)]
- solubility ([1]; bei 20 °C): > 1000 mg/mL
- sterilisieren durch Erhitzen [2]: ohne Schwierigkeiten

Molecule: O=C(NC(CO)CO)c1c(I)c(OCCOCCOCCO)c(I)c(C(=O)NC(CO)CO)c1I [Beispiel 5]
- solubility ([1]; bei Raumtemperatur): > 1000 mg/mL
- sterilisieren durch Erhitzen [2]: ohne Schwierigkeiten

Molecule: CN(C[C@H](O)[C@@H](O)[C@H](O)[C@H](O)CO)C(=O)COc1c(Br)c(C(=O)NCC(O)CO)c(Br)c(C(=O)NCC(O)CO)c1Br (some centres unmarked) [Beispiel 38, 5-(N-Methyl-N-2,3,4,5,6-pentahydroxyhexyl)aminocarbonylmethoxy-2,4,6-tribromisophthalsäure-bis(2,3-dihydroxypropylamid)]
- solubility ([1]; bei 20 °C): > 1000 mg/mL

Molecule: CN(CC(O)CO)C(=O)COc1c(I)c(C(=O)NC(C)(CO)CO)c(I)c(C(=O)NC(C)(CO)CO)c1I (centres unmarked) [Beispiel 39, 5(N-Methyl-N-2,3-dihydroxypropyl)aminocarbonylmethoxy-2,4,6-trijod-isophthalsäure-bis(1,3-dihydroxy-2-methylisopropylamid)]
- solubility ([1]; bei 20 °C): ≥ 1000 mg/mL

Molecule: CCOCCOCCOc1c(I)c(C(=O)N(C)CC(O)CO)c(I)c(C(=O)N(C)CC(O)CO)c1I (centres unmarked) [Beispiel 40, 5-(3,6-Dioxaoctyl)oxy-2,4,6-trijodisophthalsäure-bis(N-methyl-N-2,3-dihydroxypropylamid)]
- solubility ([1]; bei 25 °C): > 600 mg/mL

Molecule: CCOCCOCCOc1c(I)c(C(=O)N(CCO)CC(O)CO)c(I)c(C(=O)N(CCO)CC(O)CO)c1I (centres unmarked) [Beispiel 41, 5-(3,6-Dioxaoctyl)oxy-2,4,6-trijodisophthalsäure-bis(N-2-hydroxyethyl-N-2,3-dihydroxypropylamid)]
- solubility ([1]; bei Raumtemperatur): > 1000 mg/mL

Molecule: CCOCCOCCOc1c(I)c(C(=O)NCC(O)CO)c(I)c(C(=O)NC(CO)CO)c1I (centres unmarked) [Beispiel 42, 1-(3-(1,3-Dihydroxyisopropylaminocarbonyl)-5-(2,3-dihydroxypropylamino-carbonyl)-2,4,6-trijod-phenoxy)-3,6-dioxaoctan]
- solubility ([1]; no temperature stated): > 500 mg/mL

Molecule: O=C(NC(CO)CO)c1c(I)c(OCCOCCOCCOc2c(I)c(C(=O)NC(CO)CO)c(I)c(C(=O)NC(CO)CO)c2I)c(I)c(C(=O)NC(CO)CO)c1I [Beispiel 43, 1,8-Bis-(3,5-bis(1,3-dihydroxyisopropylaminocarbonyl)-2,4,6-trijod-phenoxy)-3,6-dioxaoctan]
- Wasserlöslichkeit [1, 3]: Wenig löslich in Wasser

Molecule: O=C(NCC(O)CO)c1c(I)c(OCCOCCOCCOc2c(I)c(C(=O)NCC(O)CO)c(I)c(C(=O)NCC(O)CO)c2I)c(I)c(C(=O)NCC(O)CO)c1I (centres unmarked) [Beispiel 44, 1,8-Bis-(3,5-bis(2,3-dihydroxypropylaminocarbonyl)-2,4,6-trijod-phenoxy)-3,6-dioxan]
- Wasserlöslichkeit [1, 3]: Wenig löslich in Wasser

Molecule: O=C(NCC(O)CO)c1c(I)c(OCCOCCOCCOCCOCCOc2c(I)c(C(=O)NCC(O)CO)c(I)c(C(=O)NC(CO)CO)c2I)c(I)c(C(=O)NC(CO)CO)c1I (centres unmarked) [Beispiel 45, 1,14-Bis-(3-(1,3-dihydroxyisopropylaminocarbonyl)-5-(2,3-dihydroxy-propylaminocarbonyl)-2,4,6-trijodphenoxy)-3,6,9,12-tetraoxatetradecan]
- Wasserlöslichkeit [1, 3]: gut wasserlöslich

Molecule: O=C(COc1c(I)c(C(=O)NC(CO)CO)c(I)c(C(=O)NC(CO)CO)c1I)NCCNC(=O)COc1c(I)c(C(=O)NC(CO)CO)c(I)c(C(=O)NC(CO)CO)c1I [Beispiel 46, 1,2-Bis-(3,5-bis(1,3-dihydroxyisopropylaminocarbonyl)-2,4,6-trijod-phenoxy-acetylamino)-ethan]
- Wasserlöslichkeit [1, 3]: kaum löslich in Wasser

Molecule: O=C(COc1c(I)c(C(=O)NC(CO)CO)c(I)c(C(=O)NC(CO)CO)c1I)NCC(O)C(O)CNC(=O)COc1c(I)c(C(=O)NC(CO)CO)c(I)c(C(=O)NC(CO)CO)c1I (centres unmarked) [Beispiel 47, 1,4-Bis-(3,5-bis(1,3-dihydroxyisopropylaminocarbonyl)-2,4,6-trijod-phenoxy-acetylamino)-2,3-dihydroxybutan]
- Wasserlöslichkeit [1, 3]: wasserlöslich

Molecule: O=C(COc1c(I)c(C(=O)NCC(O)CO)c(I)c(C(=O)NCC(O)CO)c1I)NC(CO)CO (centres unmarked) [Beispiel 48, 5-(1,3-Dihydroxyisopropylaminocarbonyl)methoxy-2,4,6-trijodisophthal-säure-bis(2,3-dihydroxypropylamid)]
- Wasserlöslichkeit [1, 3]: leicht löslich in Wasser

Molecule: O=C(COc1c(I)c(C(=O)NC(CO)CO)c(I)c(C(=O)NC(CO)CO)c1I)NCC(O)CO (centres unmarked) [Beispiel 49, 5-(2,3-Dihydroxypropylaminocarbonyl)methoxy-2,4,6-trijodisophthalsäure-bis(1,3-dihydroxyisopropylamid)]
- Wasserlöslichkeit [1, 3]: leicht löslich in Wasser

Molecule: COC(=O)[C@@H](C)Oc1c(Br)c(C(=O)NC(CO)CO)c(Br)c(C(=O)NC(CO)CO)c1Br [R(+)-5(1(Methoxycarbonyl)ethoxy)-2,4,6-tribromisophthalsäure-bis(1,3-di-hydroxyisopropylamid)]
- Wasserlöslichkeit [1, 3]: sehr gut wasserlösliche

Molecule: COC(=O)[C@@H](C)Oc1c(I)c(C(=O)NC(CO)CO)c(I)c(C(=O)NC(CO)CO)c1I [R(+)-5(1(Methoxycarbonyl)ethoxy-IPSA]
- solubility ([1]; bei 25 °C): ~800 mg/mL (≈ 1010 mM)

Molecule: R(+)-5-(1(1,3-Dihydroxyisopropylaminocarbonyl)ethoxy)-2,4,6-tribromiso- phthalsäure-bis(1,3-dihydroxyisopropylamid) [Beispiel 13]
- Wasserlöslichkeit ([1]; bei 20 °C): 5 % (g/v)
- Wasserlöslichkeit ([1]; bei 100 °C): 100 % (g/v)
